Measured values reported in BigSolDB 2.1.

NS(=O)(=O)Cc1noc2ccccc12
solubility (mole fraction)
Settings | 278.15 K | 283.15 K | 288.15 K | 293.15 K | 298.15 K | 303.15 K | 308.15 K | 313.15 K | 318.15 K | 323.15 K
in DMF | 0.0292 | 0.0356 | 0.0428 | 0.0514 | 0.0612 | 0.0721 | 0.0852 | 0.101 | 0.118 | 0.136
in acetonitrile | 0.00682 | 0.00802 | 0.00937 | 0.0108 | 0.0124 | 0.0142 | 0.0162 | 0.0183 | 0.0207 | 0.0233
in ethanol | 0.00139 | 0.00162 | 0.00185 | 0.00215 | 0.00245 | 0.00279 | 0.00316 | 0.00356 | 0.004 | 0.00446
in isopropanol | 0.000797 | 0.000963 | 0.00115 | 0.00137 | 0.00163 | 0.00192 | 0.00226 | 0.00264 | 0.00306 | 0.00352
in water | 1.78e-05 | 2.5e-05 | 3.43e-05 | 4.67e-05 | 6.49e-05 | 8.56e-05 | 0.000112 | 0.00015 | 0.000196 | 0.000256
